Results published in US6818782B2, “Enantiomeric compounds for treatment of cardiac arrhythmias and methods of use” (ARYX Therapeutics, priority 1999, dated 2004).

What was measured:
[1] = test system: rats challenged by an arrhythmogenic combination of benzene vapors and adrenaline; experiment: Anti-arrhythmic activity in anesthetized rats (benzene/adrenaline challenge: VPB and tachycardia); assay type: in vivo, rat; settings: for Protection against adrenaline-induced tachycardia (heart rate), potency and duration: administered from time 0 to time 120 minutes; for Heart rate (beats/minute) / Inhibition of tachycardia / Number of VPB / Inhibition of VPB: isolated enantiomer compared to respective racemate; for Inhibition of VPB: 4 mg/kg i.v. then 12 mg/kg/h for 2 hours; for Anti-VPB activity at the end of the washout period: time 180 min; for Inhibition of formation of ventricular premature beats during drug administration: whole period of drug administration (time 0 to 120 min), 4 mg/kg i.v. then 12 mg/kg/h
Description: (§1) Anti-Arrhythmic Activity in Anesthetized Rats
(§2) Male Sprague-Dawley rats with body weights of 410±30 g (Harlan Sprague Dawley Inc., Indianapolis, Ind.), were anesthetized with sodium pentobarbital (50 mg/kg i.p.—Butler Co., Columbus, Ohio). The skin from the neck area was removed and the jugular veins on both sides were cleared of connective tissue. Both jugular veins and the left carotid artery were isolated, and the latter tied up cranially with a surgical silk (ETHICON 4-0, Ethicon Inc., Australia). A plastic catheter ([…] 19ga, Vecton Dickinson, Sandy, Utah), filled with a solution containing 10% sodium heparin (Elkins-Sinn Inc., Cherry Hill, N.J.) in normal saline (100 U/ml sodium heparin), was introduced into the artery and fixed with surgical silk.
(§3) The catheter was connected to a pressure transducer (OHMEDA P23-XL, Ohmeda Medical Devices Division Inc., Madison, Wis.), filled with the same heparinized 0.9% NaCl solution, to register beat-to-beat arterial pressure. Needle electrodes were inserted s.c., and together with the pressure transducer, were joined to a GOULD TA 2000 recorder. Leads II, aVF and intraarterial blood pressure were monitored simultaneously throughout the experiments and recorded at certain intervals at 50 and 200 mm/sec paper speed.
(§4) The surgery was completed with an incision on the trachea where a short plastic tubing was placed and the animal was connected to a rodent-model ventilator (HARVARD Model 683, Harvard Apparatus, Inc., Holliston, Mass.). The animals were ventilated in a controlled way, depending on their spontaneous breathing frequency (55-75/min).
(§5) Drug administrations were carried out through i.v. catheters (TERUMO 24 GA*¾″, Terumo Medical Corp., Elkton, Md.) inserted into both jugular veins. The left side was used for drug infusions by means of a syringe pump (SAGE INSTRUMENTS, Model 341B, Orion Res. Inc., Boston, Mass.), and the right side was used for adrenaline injections. The experiments were started after at least 15 minutes of stabilization. Benzene/adrenaline challenges were performed as follows: the respirator inlet was connected to a 50-ml bubbler half-full with benzene (Fisher Scientific, Fair Lawn, N.J.) so that the inspired air was saturated with benzene vapor. The animal was ventilated with benzene vapor for two minutes. The tidal volume was typically 1 ml/100 g of animal. During the last 30 seconds of benzene ventilation, 10 μg/kg adrenaline solution (in 0.9% NaCl) was injected into the right jugular vein. […] These arrhythmias could be elicited repeatedly. After three control VTs (at −30, −20 and −10 minutes), the test compounds were injected slowly during 30 seconds at a dose of 4 mg/kg i.v., immediately followed by a slow infusion of 12 mg/kg/h for 2 hours. The flow rate during the infusion period was 1 ml/h.
(§6) There were 5 rats per test compound and each animal served as its own control. The ability of the different drugs to suppress arrhythmias was tested against repeated benzene/adrenaline challenges at 5, 15, 30, 45, 60, 90, 120 (end of drug infusion), 135, 150, 165 and 180 minutes after the i.v. bolus injection. The amplitudes of the systolic arterial pressure and diastolic arterial pressure […] with the help of a pressure-amplitude calibration curve. Heart rate, number of ventricular complexes during the occurrence of VTs and VPBs, and certain ECG parameters (PR, QRS, QT durations and RR cycle lengths in msec) were also recorded and measured manually. At each time-point, 3-5 cycles were measured and the average values were entered into EXCEL Windows 97. The average and standard deviation for the five experimental animals per compound were calculated.

anesthetized rats = experiment: EKG parameters (QT, QRS, PR) in anesthetized rats; assay type: in vivo, rat; settings: for PR interval / QRS interval / QT interval: isolated enantiomer compared to respective racemate
Description: as §1, §2, §3, §4, §5, §6

SMILES	Protection against adrenaline-induced tachycardia (heart rate), potency and duration [1]	PR interval (anesthetized rats)	QRS interval (anesthetized rats)	QT interval (anesthetized rats)	Heart rate (beats/minute) ([1]; anesthetized rats)	Inhibition of tachycardia ([1]; anesthetized rats)	Number of VPB ([1]; anesthetized rats)	Inhibition of VPB ([1]; anesthetized rats)	Anti-VPB activity at the end of the washout period [1]	Inhibition of formation of ventricular premature beats during drug administration [1]	Effect on PR segment of EKG (Class-IV activity), potency (anesthetized rats)	Effect on QT segment of EKG (Class-III properties), potency and duration (anesthetized rats)	Time at which anti-VPB activity is lost ([1]; infusion time 0 to 120 min) [min]	Anti-VPB activity relative to the other forms ([1]; racemate vs enantiomers, anesthetized rats)
CC[C@H](C)OC(=O)Cc1oc2ccccc2c1C(=O)c1cc(I)c(OCCN(CC)CC)c(I)c1 [ATI-2042]	very good protection against this tachyarrhythmia													
CCN(CC)CCOc1c(I)cc(C(=O)c2c(CC(=O)OC(C)C(C)C)oc3ccccc23)cc1I (stereo not shown) [ATI-2055]	inhibits the tachycardia													
CC[C@@H](C)OC(=O)Cc1oc2ccccc2c1C(=O)c1cc(I)c(OCCN(CC)CC)c(I)c1 [Compound R-2042, (R)-sec-Butyl 2-[3-(3,5-diiodo-4-(2-diethylaminoethyloxy)benzoyl)]benzofuraneacetate]		shorter	no change	no change	lower	longer	lower	longer	completely inactive					
CCN(CC)CCOc1c(I)cc(C(=O)c2c(CC(=O)O[C@H](C)C(C)C)oc3ccccc23)cc1I [Compound R-2055, (R)-(3-Methyl)-2butyl2-[3-(3,5-diiodo-4-(2-diethylaminoethyloxy)benzoyl)]benzofuraneacetate]	longer-lasting effect than S-2055	shorter	longer	no change	lower	longer	lower	longer	still retained part of its activity	totally inhibited the formation of ventricular premature beats				
CC[C@H](C)OC(=O)Cc1oc2ccccc2c1C(=O)c1cc(I)c(OCCN(CC)CC)c(I)c1 [Compound S-2042, (S)-sec-Butyl 2-[3-(3,5-diiodo-4-(2-diethylaminoethyloxy)benzoyl)]benzofurane-acetate]	more potent and longer acting then R-2042	longer	longer	longer	lower	longer	lower	longer	still retained part of its activity	totally inhibited the formation of ventricular premature beats	much more potent than R-2042 and the racemate R,S-2042	the most potent and the longest acting		
CCN(CC)CCOc1c(I)cc(C(=O)c2c(CC(=O)O[C@@H](C)C(C)C)oc3ccccc23)cc1I [Compound S-2055, (S)-(3-Methyl)-2butyl2-[3-(3,5-diiodo-4-(2-diethylaminoethyloxy)benzoyl)]benzofuraneacetate]		shorter	longer	no change	lower	longer	lower	longer	completely inactive				~40	
CC[C@H](C)OC(=O)Cc1oc2ccccc2c1C(=O)c1cc(I)c(OCCN(CC)CC)c(I)c1 [R,S-2042]	the least potent and shortest acting													even less active than either the R- or the S-isomer
